One experiment addresses T1, PLA2 L19W/W3F (Sus scrofa, UniProt P00592, L41W/W25F).
T1 construct: made in house
The experiment can be described thus: Bile salt binding by Trp emission, L19W/W3F PLA2. More on the design: species or system pig. To be noted: read-out: KEB. As for the experimental part:
(§1) Fluorescence emission spectrum or time course of the intensity change from tryptophan or the resonance energy transfer probe TMA-DPH were measured in the ratio mode on SLM-Aminco AB2 in a 1 cm cuvette [31, 32] in 1.6 ml stirred buffer containing 1 or 2 μM PLA2 in 10 mM Tris, 5 mM CaCl2 and 20 mM NaCl at pH 8.0 and 24° C. The slit-widths were 4 nm with excitation at 280.
(§2) As shown in [45], the binding of decylsulfate to the R site is accompanied by a modest increase in the emission intensity from Trp-3. […] As summarized in Table 2, the value of KEB depends on the position of Trp, although Hill coefficient remains 1. […] Note that KEB for the EB complex of ΔPLA2 is about 7-fold larger than that for PLA2.

The next experiment concerns the target T2, PLA2 A1W/W3F (Sus scrofa, UniProt P00592, A23W/W25F).
T2 construct: made in house
The experiment in a line: Bile salt binding by Trp emission, A1W/W3F PLA2. Further details: species or system pig. To be noted: read-out: KEB. As for the experimental part:
as §1, §2

The next experiment deals with PLA2 R6M (Sus scrofa, UniProt P00592, R28M). The experiment can be described thus: Bile salt binding by Trp emission, R6M PLA2. Further details: species or system pig. To be noted: read-out: KEB. Here is the method:
as §1, §2

Another experiment concerns the target T3, PLA2 (Sus scrofa, UniProt P00592).
T3 construct: made in house
The experiment in a line: PLA2 catalyzed hydrolysis of mixed micelles of POPC with bile salts. The format is biochemical, pig. To be noted: 1 mM POPC, 0.7 mole fraction bile salt. Here is the method:
(§3) Aqueous dispersion of phospholipid was sonicated in a bath type sonicator. Virtually transparent suspension was annealed for at least 4 hours at room temperature before use. Reaction progress for the PLA2 catalyzed hydrolysis of sonicated DMPC (1 mM) vesicles was measured by pH-stat titration (Radiometer) with 1 mM 2-aminopropanediol in 4 ml reaction buffer containing 5 mM CaCl2 for DMPC (or 0.5 mM for DMPM), 1 mM NaCl, and 0.1 mM EDTA at pH 8.0 and 24° C. in the nitrogen purged closed atmosphere. Reaction was initiated by adding 0.1 μg enzyme in 1-10 μl solution. The pH stat method was also used for monitoring the rate of hydrolysis of DMPM (0.4 mM) vesicles in the presence of polymyxin [27-29], or of the mixed-micelles of POPC with bile salts in 1:2 ratio [13, 30].

For the next experiment, the target named is T4, WT (wild type) pig PLA2 (Sus scrofa, UniProt P00592).
T4 construct: made in house
The experiment can be described thus: PLA2 catalyzed hydrolysis of sonicated DMPC vesicles with added bile salt (pH-stat). The format is biochemical. Here is the method: as §3, with “and 0.1 mM EDTA at pH 8.0 and 24° C. in the nitrogen purged closed” left out
Delay before the onset of the stationary phase of the PLA2 catalyzed reaction progress for the hydrolysis of zwitterionic phospholipids has been extensively characterized. […] The apparent rates in FIG. 3 were obtained from the initial slopes of such reaction progress during which <5% of the total substrate is hydrolyzed.
The CMC of the bile salts used in this study range between 0.8 to 5 mM.

A further experiment has as its target PLA2 K10M (Sus scrofa, UniProt P00592, K32M). The experiment can be described thus: Bile salt binding by Trp emission, K10M PLA2. More on the design: species or system pig. To be noted: read-out: KEB. As for the experimental part: as §1, §2
For a further experiment, the target named is T5, PLA2 K53W/W3F (Sus scrofa, UniProt P00592, R75W/W25F).
T5 construct: made in house
The experiment can be described thus: Bile salt binding by Trp emission, K53W/W3F PLA2. Further details: species or system pig. To be noted: read-out: KEB. Here is the method: as §1, §2

The target of the next experiment is T6, PLA2 N117W (Sus scrofa, UniProt P00592, N139W).
T6 construct: made in house
The experiment in a line: Bile salt binding by Trp emission, N117W PLA2. Further details: species or system pig. To be noted: read-out: KEB. Here is the method:
as §1, §2

Another experiment concerns the target T7, PLA2 (3W)(WT) (Sus scrofa, UniProt P00592).
T7 construct: made in house
The experiment in a line: Bile salt binding by Trp emission, (3W)(WT) PLA2. More on the design: species or system pig. To be noted: read-out: KEB. As for the experimental part: as §1, §2

Experiment [1] has as its target T8, (62-66)-loop deleted pig pancreatic IB ΔPLA2 (Sus scrofa, UniProt P00592, DEL84-88).
T8 construct: made in house
The experiment can be described thus: Hydrolysis of DMPC vesicles by (62-66)-loop deleted ΔPLA2 with added bile salt. It is filed as biochemical. Here is the method: as §3

The next experiment has as its target T9, human pancreatic IB PLA2 (Homo sapiens, UniProt P04054).
T9 construct: gift of Dr. Suren Tatulian (Orlando, Fla.)
The experiment in a line: Hydrolysis of DMPC vesicles by human IB PLA2 with added bile salt. It is filed as biochemical. To be noted: 1 mM DMPC. Here is the method:
as §3

The next experiment addresses T10, PLA2 K10W/W3F (Sus scrofa, UniProt P00592, K32W/W25F).
T10 construct: made in house
The experiment in a line: Bile salt binding by Trp emission, K10W/W3F PLA2. More on the design: species or system pig. To be noted: read-out: KEB. As for the experimental part: as §1, §2

In another experiment the target is PLA2 K63W/W3F (Sus scrofa, UniProt P00592, W25F/). The experiment can be described thus: Bile salt binding by Trp emission, K63W/W3F PLA2. More on the design: species or system pig. To be noted: read-out: KEB. As for the experimental part:
as §1, §2

The target of another experiment is T11, PLA2 M20W/W3F (Sus scrofa, UniProt P00592, M42W/W25F).
T11 construct: made in house
The experiment can be described thus: Bile salt binding by Trp emission, M20W/W3F PLA2. To be noted: read-out: KEB. Further details: species or system pig. Here is the method:
as §1, §2

Another experiment deals with T12, PLA2 Δ62-66 (Sus scrofa, UniProt P00592, DEL84-88).
T12 construct: made in house
The experiment in a line: Bile salt binding by Trp emission, Δ62-66 PLA2. Further details: species or system pig. Here is the method:
as §1, §2

A further experiment has as its system Naja venom PLA2. It is filed as biochemical, Naja melanoleuca. Here is the method: as §3
In a further experiment the target is T13, pig pancreatic IB PLA2 (Sus scrofa, UniProt P00592).
T13 construct: made in house
The experiment can be described thus: Rate-lowering of hydrolysis of DMPC + 0.05 mole fraction cholate vesicles by pig pancreatic PLA2. It is filed as biochemical. To be noted: 0.03 mole fraction; DMPC + 0.05 mole fraction cholate. The text has this: Independent support for selective binding of the rate lowering compounds to a regulatory site on PLA2 comes from the rate-lowering effect of such compounds on the hydrolysis of DMPC vesicles containing 0.05 mole fraction cholate.
Scores of other compounds in guggul were not active.

For the next experiment, the target named is T14, PLA2 K56W/W3F (Sus scrofa, UniProt P00592, K78W/W25F).
T14 construct: made in house
The experiment can be described thus: Bile salt binding by Trp emission, K56W/W3F PLA2. To be noted: read-out: KEB. More on the design: species or system pig. Here is the method:
as §1, §2

Some results are limits rather than exact numbers.

T4 sequence (P00592 23-146): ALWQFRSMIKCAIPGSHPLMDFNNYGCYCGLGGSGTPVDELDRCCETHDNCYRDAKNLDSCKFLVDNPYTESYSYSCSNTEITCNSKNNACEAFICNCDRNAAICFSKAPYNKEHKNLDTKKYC
T12 sequence (P00592 with tags, fused parts or gaps DEL84-88): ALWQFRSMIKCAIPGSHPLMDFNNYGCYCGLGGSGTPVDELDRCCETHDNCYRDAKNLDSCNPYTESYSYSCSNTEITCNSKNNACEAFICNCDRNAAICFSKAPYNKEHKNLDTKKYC
T2 sequence (P00592 23-146 A23W/W25F): as the sequence (P00592 23-146) above, with A1W, W3F counted along it
T14 sequence (P00592 23-146 W25F/K78W): as the sequence (P00592 23-146) above, with W3F, K56W counted along it
T8 sequence (P00592 with tags, fused parts or gaps DEL84-88): as the sequence (P00592 with tags, fused parts or gaps DEL84-88) above
T10 sequence (P00592 23-146 W25F/K32W): as the sequence (P00592 23-146) above, with W3F, K10W counted along it
T11 sequence (P00592 23-146 W25F/M42W): as the sequence (P00592 23-146) above, with W3F, M20W counted along it
Sequence of PLA2 K63W/W3F (P00592 whole entry W25F/F85W, form open): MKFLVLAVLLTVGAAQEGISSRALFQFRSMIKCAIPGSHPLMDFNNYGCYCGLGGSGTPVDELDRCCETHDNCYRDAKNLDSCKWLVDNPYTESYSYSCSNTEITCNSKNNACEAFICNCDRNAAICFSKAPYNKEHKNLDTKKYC
T9 sequence (P04054 23-148): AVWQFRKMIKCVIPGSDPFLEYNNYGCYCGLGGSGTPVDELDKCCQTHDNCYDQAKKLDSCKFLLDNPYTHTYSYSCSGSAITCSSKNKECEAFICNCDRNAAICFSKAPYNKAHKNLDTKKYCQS
T7 sequence (P00592 23-146): as the sequence (P00592 23-146) above
T13 sequence (P00592 23-146): as above
T3 sequence (P00592 23-146): as above
Sequence of PLA2 K10M (P00592 whole entry K32M): as the sequence (P00592 whole entry W25F/F85W, form open) above, with F25W, K32M, W85F counted along it
Sequence of PLA2 R6M (P00592 23-146 R28M): as the sequence (P00592 23-146) above, with R6M counted along it
T5 sequence (P00592 23-146 W25F/R75W): as the sequence (P00592 23-146) above, with W3F, R53W counted along it
T6 sequence (P00592 23-146 N139W): as the sequence (P00592 23-146) above, with N117W counted along it
T1 sequence (P00592 23-146 W25F/L41W): as the sequence (P00592 23-146) above, with W3F, L19W counted along it

Consider `C[C@H](CCC(=O)NCCS(=O)(=O)O)[C@H]1CC[C@H]2[C@@H]3[C@H](O)C[C@@H]4C[C@H](O)CC[C@]4(C)[C@H]3CC[C@]12C` [TCDOC, taurochenodeoxycholate], for which the Kd on PLA2 L19W/W3F was found to be 3 µM; at PLA2 A1W/W3F, 210 µM; at PLA2 R6M it was 150 µM; on PLA2 K10M, 8 µM; on PLA2 K53W/W3F, 15 µM; at PLA2 N117W, 7 µM. Further, the Kd is 6 µM at PLA2 (3W)(WT); 4 µM at PLA2 K10W/W3F; 3 µM on PLA2 K63W/W3F; 75 µM at PLA2 M20W/W3F; 41 µM on PLA2 Δ62-66 (Δ62-66, read-out: KEB); 21 µM at PLA2 K56W/W3F. Moreover, the “initial rate of hydrolysis of POPC in mixed micelles” value on PLA2 came out at 15 s⁻¹. Further, the “concentration at which the rate increase and decrease is complete” value at WT (wild type) pig PLA2 (1 mM DMPC vesicles) is reported as less than 0.12 mM. Further, the “peak rate of hydrolysis of DMPC vesicles” value at WT (wild type) pig PLA2 (1 mM DMPC, 24° C., cholate above 0.04 mM) came out at 80 s⁻¹. Further, the “bile salt concentration at the maximum rate” value on WT (wild type) pig PLA2 (16° C., 1 mM DMPC) came out at 0.013 mM; at WT (wild type) pig PLA2 (29° C., 1 mM DMPC), 0.13 mM. Also, the “effect of bile salt on the rate of hydrolysis (monophasic/biphasic)” value on WT (wild type) pig PLA2 (DMPC vesicles, pancreatic PLA2) is “a rate increase and then a rate decrease at higher concentration”. In experiment [1], the “rate lowering effect with ΔPLA2 mutant” value was “not observed”. Moreover, the “effect on rate of hydrolysis of DMPC vesicles by human pancreatic IB PLA2” value at human pancreatic IB PLA2 is on record as “virtually no rate increase”. At PLA2 Δ62-66 (ΔPLA2 versus PLA2), the “KEB for the EB complex of ΔPLA2 relative to PLA2” value is “about 7 fold”. Also, in the experiment on Naja venom PLA2, the “rate lowering effect with Naja venom enzyme” value is on record as “not observed”. On pig pancreatic IB PLA2, the “Relative Rate-lowering (%) Activity, pPLA2” value is recorded as 26%.

The record behind these values is patent US20080139520A1, “Altering cholesterol and fat uptake by novel allosteric inhibitors of pancreatic phospholipase A2” (priority 2006, published 2008).
